Measured values reported in patent US9114111B2, “Methods for sustained treatment of bladder pain and irritative voiding” (priority 2011, dated 2015).
Read-outs that look alike come from different tables or passages of the source.

Experiments:
[1] = In vitro release of lidocaine from silicone tube devices in water at about 37° C.; type: physicochemical; conditions: silicone tubes about 3 cm, payload about 60 mg
Method: A study was performed to determine the feasibility of delivering drug through the wall of a drug reservoir via diffusion. Devices were formed form silicone tubes having an inner diameter of about 0.060 inches, an outer diameter of 0.076 inches, and a length of about 3 cm. […] Some of the devices included an aperture formed through the tube wall, the aperture having a diameter of 150 μm. […] The devices were tested in vitro in water at about 37° C. […] Another study was performed to investigate the feasibility of delivering drug from a device through both a wall of a drug reservoir and from an aperture in the wall of the drug reservoir. Devices were formed form silicone tubes having a length of about 3 cm. […] The devices were tested in vitro in water at about 37° C.

[2] = test system: IC patients; conditions: cited from earlier work

Row | Compound | release from silicone tube with and without apertures [1] | mean pain score ([2]; immediately following treatment, prior to treatment 6.0) | duration of effect ([2]; single lidocaine instillation) | mean pain score ([2]; the next day) | mean pain score ([2]; with a second instillation)
1 | CCN(CC)CC(=O)Nc1c(C)cccc1C [lidocaine base] | can be released from a silicone tube without any apertures |  |  |  | 
2 | CCN(CC)CC(=O)Nc1c(C)cccc1C [lidocaine] |  | 1.8 | approximately 24 hours | 3.7 | 1.2
